We go through 13 compounds from patent publication US9315491B2 (DEVELOPMENT CENTER FOR BIOTECHNOLOGY, priority 2009, dated 2016).

The target in the assay is recombinant mTOR (Homo sapiens (Human), UniProt P42345). Description: mTOR kinase assay (33P incorporation into 4EBP1). It is filed as biochemical. The note with it: compound at 10 μM, 10 μM ATP. Here is the method: The activity of the compound against mTOR was examined by measuring the incorporation of ^33P from [γ-^33P]-ATP into 4EBP1. His-tagged, recombinant human 4EBP1 was expressed in E. coli, purified by nickel-nitrilotriacetic acid (Ni-NTA) resins, and stored at −80° C. Phosphorylation of 4EBP1 by mTOR was assayed in the presence or absence of the compound and performed in a final volume of 25 μl reaction buffer containing 300 ng 4EBP1, 50 ng recombinant mTOR (Invitrogen), 50 mM HEPES (pH 7.5), 1 mM EGTA, 0.01% Polysorbate 20, 10 mM MnCl2, 2.5 mM DTT, 10 μM ATP, and 0.5 μCi [γ-33P]-ATP (PerkinElmir) for 30 min at 30° C. The reactions were terminated by adding 3% phosphoric acid. The ^33P labeled 4EBP1 was transferred onto UniFilter-96 GF/B plate (PerkinElmer) and quantified by Top Count Microplate Scintillation Counter (PerkinElmer). For primary screening of kinase activity inhibition, each test compound was evaluated at […] in duplicate. […] The IC50 values of the compounds were determined after carrying out assays at eight serially diluted concentrations of each compound in duplicate. The results were analyzed using linear regression software (GraphPad Prism 5; GraphPad Software Inc.).
recombinant mTOR, sequence (P42345 1360-2549): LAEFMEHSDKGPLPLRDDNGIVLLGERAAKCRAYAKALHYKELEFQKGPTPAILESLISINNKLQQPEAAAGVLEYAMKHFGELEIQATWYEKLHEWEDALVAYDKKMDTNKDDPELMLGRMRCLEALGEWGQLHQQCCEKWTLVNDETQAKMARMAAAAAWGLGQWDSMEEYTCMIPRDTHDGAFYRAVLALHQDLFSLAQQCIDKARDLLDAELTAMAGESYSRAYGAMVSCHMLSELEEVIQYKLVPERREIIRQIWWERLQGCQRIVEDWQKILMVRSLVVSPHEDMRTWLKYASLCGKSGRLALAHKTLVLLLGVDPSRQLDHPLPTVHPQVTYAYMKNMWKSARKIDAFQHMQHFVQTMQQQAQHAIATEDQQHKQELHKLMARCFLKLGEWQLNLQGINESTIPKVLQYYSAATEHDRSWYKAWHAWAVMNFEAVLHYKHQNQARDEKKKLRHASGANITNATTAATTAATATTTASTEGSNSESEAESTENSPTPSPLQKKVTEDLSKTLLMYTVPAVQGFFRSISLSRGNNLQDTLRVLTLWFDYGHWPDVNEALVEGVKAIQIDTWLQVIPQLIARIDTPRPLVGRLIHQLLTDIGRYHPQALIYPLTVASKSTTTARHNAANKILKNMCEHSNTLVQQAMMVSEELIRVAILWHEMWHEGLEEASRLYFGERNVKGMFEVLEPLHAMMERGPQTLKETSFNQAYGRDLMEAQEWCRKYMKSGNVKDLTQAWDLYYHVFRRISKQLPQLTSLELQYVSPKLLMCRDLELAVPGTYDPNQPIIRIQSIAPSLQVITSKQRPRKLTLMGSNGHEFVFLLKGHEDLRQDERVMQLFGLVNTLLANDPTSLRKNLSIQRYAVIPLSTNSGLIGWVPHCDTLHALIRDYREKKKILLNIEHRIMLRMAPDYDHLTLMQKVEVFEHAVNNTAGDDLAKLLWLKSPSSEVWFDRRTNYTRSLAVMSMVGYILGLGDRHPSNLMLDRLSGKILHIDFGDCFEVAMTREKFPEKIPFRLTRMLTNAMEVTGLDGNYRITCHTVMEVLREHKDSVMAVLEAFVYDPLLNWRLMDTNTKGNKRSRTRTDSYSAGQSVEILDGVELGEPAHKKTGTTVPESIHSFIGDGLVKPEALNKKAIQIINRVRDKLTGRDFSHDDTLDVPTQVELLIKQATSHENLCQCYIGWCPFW
IC50 value is defined as the concentration of the test compound which achieves a half-maximal inhibition of the kinase activity.
For `CCOC(=O)c1nc(-c2ccc(NC(=O)Nc3ccc(C(N)=O)cc3)c(F)c2)nc(N2CCOCC2)c1OCC` [MTR-0344, 2-{4-[3-(4-Carbamoyl-phenyl)-ureido]-3-fluoro-phenyl}-5-ethoxy-6-morpholin-4-yl-pyrimidine-4-carboxylic acid ethyl ester], the inhibition (in general, the relative decrease from the control value, in per cent) at 10 µM came out at 92%. To `CCOC(=O)c1nc(-c2ccc(NC(=O)Nc3ccc(C(N)=O)cc3)cc2F)nc(N2CCOCC2)c1OCC` [MTR-0345, 2-{4-[3-(4-Carbamoyl-phenyl)-ureido]-2-fluoro-phenyl}-5-ethoxy-6-morpholin-4-yl-pyrimidine-4-carboxylic acid ethyl ester] belongs 95%; to `COc1cnc(-c2ccc(NC(=O)Nc3ccc(Br)nc3)cc2)nc1N1CCOCC1` [MTR-0352, 1-(6-Bromo-pyridin-3-yl)-3-[4-(5-methoxy-4-morpholin-4-yl-pyrimidin-2-yl)-phenyl]-urea], 94%.

For `CSc1c(Cl)nc(-c2ccc(NC(N)=O)c(F)c2)nc1N1CCOCC1` [MTR-0356, [4-(4-Chloro-5-methylsulfanyl-6-morpholin-4-yl-pyrimidin-2-yl)-2-fluoro-phenyl]-urea], the inhibition at 10 µM came to 82%. The figure for `CSc1c(-c2ccncc2)nc(-c2ccc(N)cc2)nc1N1CCOCC1` [MTR-0360, 4-(5-Methylsulfanyl-4-morpholin-4-yl-6-pyridin-4-yl-pyrimidin-2-yl)-phenylamine] is 95%; for `CCOC(=O)c1nc(-c2ccc(NC(=O)Nc3ccc4c(c3)OCO4)cc2)nc(N2CCOCC2)c1OCC` [MTR-0361, 2-[4-(3-Benzo[1,3]dioxol-5-yl-ureido)-phenyl]-5-ethoxy-6-morpholin-4-yl-pyrimidine-4-carboxylic acid ethyl ester] it is 95%. The figure for `CCOC(=O)c1ccc(NC(=O)Nc2ccc(-c3nc(C(=O)OCC)c(OCC)c(N4CCOCC4)n3)cc2)cc1` [MTR-0362, 5-Ethoxy-2-{4-[3-(4-ethoxycarbonyl-phenyl)-ureido]-phenyl}-6-morpholin-4-yl-pyrimidine-4-carboxylic acid ethyl ester] is 84%. To `CCOC(=O)c1nc(-c2ccc(NC(=O)Nc3ccc(OCCN(C)C)cc3)cc2)nc(N2CCOCC2)c1OCC` [MTR-0363, 2-(4-{3-[4-(2-Dimethylamino-ethoxy)-phenyl]-ureido}-phenyl)-5-ethoxy-6-morpholin-4-yl-pyrimidine-4-carboxylic acid ethyl ester] belongs 93%.

For the compound `CCOC(=O)c1nc(-c2ccc(NC(=O)NC(C)C)cc2)nc(N2CCOCC2)c1OCC` [MTR-0366, 5-Ethoxy-2-[4-(3-isopropyl-ureido)-phenyl]-6-morpholin-4-yl-pyrimidine-4-carboxylic acid ethyl ester], the inhibition at 10 µM stood at 85%. The figure for `CSc1c(Cl)nc(-c2cnc(N)nc2)nc1N1CCOCC1` [MTR-0373, 6-Chloro-5-methylsulfanyl-4-morpholin-4-yl-[2,5′]bipyrimidinyl-2′-ylamine] is 81%; for `CS(=O)(=O)c1cnc(-c2ccc(NC(=O)Nc3ccc(N4CCOCC4=O)cc3)cc2)nc1N1CCOCC1` [MTR-0381, 1-[4-(5-Methanesulfonyl-4-morpholin-4-yl-pyrimidin-2-yl)-phenyl]-3-[4-(3-oxo-morpholin-4-yl)-phenyl]-urea] it is 92%. The figure for `CCOc1cnc(-c2ccc(NC(=O)Nc3ccc(C(N)=O)cc3)cc2)nc1-c1ccncc1` [MTR-0400, 4-{3-[4-(5-Ethoxy-4-pyridin-4-yl-pyrimidin-2-yl)-phenyl]-ureido}-benzamide] is 85%. Turning to `CCOC(=O)c1nc(-c2cnc(NC(=O)Nc3ccc(N4CCOCC4=O)cc3)nc2)nc(N2CCOCC2)c1OCC` [MTR-0403, 5-Ethoxy-6-morpholin-4-yl-2′-{3-[4-(3-oxo-morpholin-4-yl)-phenyl]-ureido}-[2,5′]bipyrimidinyl-4-carboxylic acid ethyl ester], the inhibition at 10 µM turned out to be 88%.
